The source made the active and inactive calls. The calls are words filed in the database; no cut-off is given here.
Legend:
[1] = Stability in human liver microsomes assessed as parent compound remaining measured after 15 mins; assay type: ADME, Microsome; details: read-out: Stability
[2] = Stability in mouse liver microsomes assessed as parent compound remaining measured after 5 mins; assay type: ADME, Microsome; details: read-out: Stability
[3] = Stability in mouse liver microsomes assessed as parent compound remaining measured after 15 mins; assay type: ADME, Microsome; details: read-out: Stability
[4] = Stability in mouse liver microsomes assessed as parent compound remaining measured after 30 mins; assay type: ADME, Microsome; details: read-out: Stability
Jurkat [5] = test: Immunostimulatory activity in anti-CD3/CD28 induced human Jurkat cells assessed as increase in IFN-gamma at 10 to 10000 nM incubated for 24 hrs in presence of PGE2 and NECA by ELISA; assay type: functional, cell-based; details: dose 10-10000 nM
[6] = Half life in Sprague-Dawley rat at 10 mg/kg,po measured upto 24 hrs by LC-MS analysis; assay type: ADME, organism-based; details: in vivo
[7] = Cmax in Sprague-Dawley rat at 10 mg/kg,po measured upto 24 hrs by LC-MS analysis; assay type: ADME, organism-based; details: in vivo
[8] = Tmax in ICR mouse at 1 mg/kg,iv measured upto 24 hrs by LC-MS analysis; assay type: ADME, organism-based; details: in vivo
[9] = Tmax in ICR mouse at 10 mg/kg,po measured upto 24 hrs by LC-MS analysis; assay type: ADME, organism-based; details: in vivo
Jurkat [10] = test: Immunostimulatory activity in anti-CD3/CD28 induced human Jurkat cells assessed as upregulation of ERK phosphorylation by Western blotting analysis; assay type: functional, cell-based
T-cell line [11] = test: Immunostimulatory activity in human T cell assessed as fold increase in IL-2 secretion; assay type: functional
[12] = target: T1, Mitogen-activated protein kinase kinase kinase kinase 3 (Homo sapiens, UniProt Q8IVH8); test: Inhibition of GLK (unknown origin)
T1 sequence (Q8IVH8 whole entry): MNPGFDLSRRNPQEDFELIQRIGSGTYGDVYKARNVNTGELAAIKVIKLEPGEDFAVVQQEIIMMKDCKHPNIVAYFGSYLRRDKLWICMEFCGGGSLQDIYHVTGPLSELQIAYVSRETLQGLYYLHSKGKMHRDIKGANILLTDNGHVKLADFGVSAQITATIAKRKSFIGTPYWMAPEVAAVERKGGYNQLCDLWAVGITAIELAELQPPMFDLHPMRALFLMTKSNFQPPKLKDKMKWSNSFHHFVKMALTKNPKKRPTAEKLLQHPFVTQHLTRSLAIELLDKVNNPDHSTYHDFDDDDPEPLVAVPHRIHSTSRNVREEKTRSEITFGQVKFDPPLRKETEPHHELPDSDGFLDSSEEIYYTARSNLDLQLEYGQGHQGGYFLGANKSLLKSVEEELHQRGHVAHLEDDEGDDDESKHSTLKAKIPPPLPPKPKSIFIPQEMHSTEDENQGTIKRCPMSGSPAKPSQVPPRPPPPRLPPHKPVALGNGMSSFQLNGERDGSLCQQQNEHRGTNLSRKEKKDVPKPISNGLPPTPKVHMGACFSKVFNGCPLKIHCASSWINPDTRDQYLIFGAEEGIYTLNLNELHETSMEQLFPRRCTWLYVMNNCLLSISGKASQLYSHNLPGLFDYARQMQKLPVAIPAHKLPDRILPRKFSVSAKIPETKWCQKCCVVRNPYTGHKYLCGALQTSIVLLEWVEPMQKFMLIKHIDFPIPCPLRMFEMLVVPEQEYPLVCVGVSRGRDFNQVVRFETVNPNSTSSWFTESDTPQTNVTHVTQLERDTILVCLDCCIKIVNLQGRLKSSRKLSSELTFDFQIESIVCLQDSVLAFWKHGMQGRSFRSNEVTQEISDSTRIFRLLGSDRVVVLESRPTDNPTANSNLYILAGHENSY

Jurkat [13] = test: Immunostimulatory activity in anti-CD3/CD28 induced human Jurkat cells assessed as upregulation of JNK phosphorylation by Western blotting analysis; assay type: functional, cell-based
Jurkat [14] = test: Immunostimulatory activity in anti-CD3/CD28 induced human Jurkat cells assessed as increase in IFN-gamma release incubated for 24 hrs by ELISA; assay type: functional, cell-based
[15] = Metabolic stability in human liver microsomes assessed as half life; assay type: ADME, Microsome
[16] = Metabolic stability in mouse liver microsomes assessed as half life; assay type: ADME, Microsome
Jurkat [17] = test: Immunostimulatory activity in anti-CD3/CD28 induced human Jurkat cells assessed as downregulation of SLP76 expression by Western blotting analysis; assay type: functional, cell-based
[18] = Stability in human liver microsomes assessed as parent compound remaining; assay type: ADME, Microsome
[19] = Tmax in Sprague-Dawley rat at 10 mg/kg,po measured upto 24 hrs by LC-MS analysis; assay type: ADME, organism-based; details: in vivo
[20] = target: T2, Protein cereblon/Mitogen-activated protein kinase kinase kinase kinase 1 (Homo sapiens, UniProt Q92918+Q96SW2); test: PROTAC activity at CRBN/HPK1 in human Jurkat cells assessed as downregulation of PFDN5 expression by Western blotting analysis; assay type: cell-based
Jurkat [21] = test: Immunostimulatory activity in anti-CD3/CD28 induced human Jurkat cells assessed as downregulation of NF-kappaB expression by Western blotting analysis; assay type: functional, cell-based
[22] = target: Mitogen-activated protein kinase kinase kinase kinase 1 (Homo sapiens, UniProt Q92918); test: Inhibition of HPK1 (unknown origin)
Jurkat [23] = test: Immunostimulatory activity in anti-CD3/CD28 induced human Jurkat cells assessed as downregulation of SLP76 phosphorylation by Western blotting analysis; assay type: functional, cell-based
[24] = target: T2, Protein cereblon/Mitogen-activated protein kinase kinase kinase kinase 1; test: PROTAC activity at CRBN/HPK1 in human Jurkat cells assessed as downregulation of KHS expression by Western blotting analysis; assay type: cell-based
[25] = target: T2, Protein cereblon/Mitogen-activated protein kinase kinase kinase kinase 1; test: PROTAC activity at CRBN/HPK1 in human Jurkat cells assessed as maximal degradation of HPK1 protein at 1 uM incubated for 24 hrs by Western blotting analysis relative to control; assay type: cell-based
[26] = AUC (0 to t) in ICR mouse at 1 mg/kg,iv measured upto 24 hrs by LC-MS analysis; assay type: ADME, organism-based; details: in vivo
[27] = Stability in human liver microsomes assessed as parent compound remaining measured after 5 mins; assay type: ADME, Microsome; details: read-out: Stability
T-cell line [28] = test: Immunostimulatory activity in human T cell assessed as increase in IL-2 secretion; assay type: functional, cell-based
[29] = target: T2, Protein cereblon/Mitogen-activated protein kinase kinase kinase kinase 1; test: PROTAC activity at CRBN/HPK1 in human Jurkat cells assessed as degradation of HPK1 protein at 1 uM preincubated with cycloheximide followed by compound addition incubated for 4 hrs by Western blotting analysis; assay type: cell-based
[30] = target: T2, Protein cereblon/Mitogen-activated protein kinase kinase kinase kinase 1; test: PROTAC activity at CRBN/HPK1 in human Jurkat cells assessed as downregulation of GLK expression by Western blotting analysis; assay type: cell-based
[31] = target: T2, Protein cereblon/Mitogen-activated protein kinase kinase kinase kinase 1; test: PROTAC activity at CRBN/HPK1 in human Jurkat cells assessed as upregulation of PCGF6 expression by Western blotting analysis; assay type: cell-based
[32] = Metabolic stability in human liver microsomes assessed as hepatic extraction ratio; assay type: ADME, Microsome; details: read-out: ERH
[33] = AUC (0 to t) in ICR mouse at 10 mg/kg,po measured upto 24 hrs by LC-MS analysis; assay type: ADME, organism-based; details: in vivo
[34] = Cmax in ICR mouse at 1 mg/kg,iv measured upto 24 hrs by LC-MS analysis; assay type: ADME, organism-based; details: in vivo
Jurkat [35] = test: Immunostimulatory activity in anti-CD3/CD28 induced human Jurkat cells assessed as upregulation of ERK expression by Western blotting analysis; assay type: functional, cell-based
T-cell line [36] = test: Immunostimulatory activity in human T cell assessed as increase in IL-2 secretion at 10 uM relative to control; assay type: functional

T2 sequence (Q92918 whole entry, looked up): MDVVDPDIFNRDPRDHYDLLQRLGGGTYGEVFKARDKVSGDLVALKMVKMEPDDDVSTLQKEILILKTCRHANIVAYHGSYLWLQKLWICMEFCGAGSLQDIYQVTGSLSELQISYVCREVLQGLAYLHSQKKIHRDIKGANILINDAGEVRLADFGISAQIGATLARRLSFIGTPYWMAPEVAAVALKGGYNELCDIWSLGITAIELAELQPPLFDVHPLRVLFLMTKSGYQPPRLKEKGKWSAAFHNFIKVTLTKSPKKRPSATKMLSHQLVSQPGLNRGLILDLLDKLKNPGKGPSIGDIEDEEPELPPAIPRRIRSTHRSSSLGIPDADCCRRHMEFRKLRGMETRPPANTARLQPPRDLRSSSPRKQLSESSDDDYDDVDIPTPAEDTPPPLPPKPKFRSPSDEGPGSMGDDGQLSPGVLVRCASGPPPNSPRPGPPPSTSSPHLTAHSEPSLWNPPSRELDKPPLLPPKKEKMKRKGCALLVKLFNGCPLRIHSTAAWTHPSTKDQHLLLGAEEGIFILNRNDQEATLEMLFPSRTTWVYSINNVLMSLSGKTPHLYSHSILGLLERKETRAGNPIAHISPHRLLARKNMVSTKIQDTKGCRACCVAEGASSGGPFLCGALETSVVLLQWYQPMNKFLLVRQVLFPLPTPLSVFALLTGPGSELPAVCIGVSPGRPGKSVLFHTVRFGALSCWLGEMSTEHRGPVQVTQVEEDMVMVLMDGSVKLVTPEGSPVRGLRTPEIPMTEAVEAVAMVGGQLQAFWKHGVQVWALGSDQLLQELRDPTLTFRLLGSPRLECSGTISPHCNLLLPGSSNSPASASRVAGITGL
T2 sequence (Q96SW2 whole entry, looked up): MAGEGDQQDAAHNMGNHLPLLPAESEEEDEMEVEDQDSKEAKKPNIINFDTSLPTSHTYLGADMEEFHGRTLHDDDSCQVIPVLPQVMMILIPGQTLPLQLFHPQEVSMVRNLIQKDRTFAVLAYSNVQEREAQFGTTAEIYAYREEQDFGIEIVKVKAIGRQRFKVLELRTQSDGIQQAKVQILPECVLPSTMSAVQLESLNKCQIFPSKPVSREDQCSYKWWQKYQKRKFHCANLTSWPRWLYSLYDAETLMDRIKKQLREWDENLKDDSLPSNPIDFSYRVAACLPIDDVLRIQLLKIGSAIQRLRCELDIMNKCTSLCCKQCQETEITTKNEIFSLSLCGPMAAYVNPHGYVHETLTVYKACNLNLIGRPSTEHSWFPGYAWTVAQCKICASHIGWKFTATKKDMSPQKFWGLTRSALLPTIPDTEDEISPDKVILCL
Sequence of Mitogen-activated protein kinase kinase kinase kinase 1 (Q92918 whole entry): as the sequence (Q92918 whole entry, looked up) above

remaining at 0.25 h [1]: 101% | remaining at 5 min [2]: 100% | remaining at 0.25 h [3]: 85.5% | remaining at 0.5 h [4]: 70.3% | half-life [6]: 6.58 h | Cmax [7]: 2090 ng/mL | Tmax [8]: 4.8 min | Tmax [9]: 4 h | IC50 [12]: > 500 nM | half-life [15]: 16.5 h | half-life [16]: 1.25 h | Stability [18]: 100% | Tmax [19]: 1 h | Activity [20]: Active | IC50 [22]: 30.9 nM | Activity [24]: Active | Activity [25]: 100% | AUC(0-t) at 24 h [26]: 16800 ng·h/mL | remaining at 5 min [27]: 96.5% | EC50 (T-cell line [28]): 12.9 nM | Activity [29]: Active | Activity [30]: Active | Activity [31]: Active | hepatic extraction ratio [32]: 0.058 | AUC(0-t) at 24 h [33]: 137000 ng·h/mL | Cmax [34]: 3000 ng/mL
SMILES: Cc1cc(-c2c[nH]c3ncc(-c4ccc(C5CCN(C6CN(c7ccc8c(c7)C(=O)N(C7CCC(=O)NC7=O)C8=O)C6)CC5)cc4)nc23)ccc1C(=O)N(C)C (stereo unspecified)
Activity (Jurkat [5]): inactive | Activity (Jurkat [10]): Active | fold change (FC) (T-cell line [11]): 70 | Activity (Jurkat [13]): Active | Activity (Jurkat [14]): Dose-Dependent Effect | Activity (Jurkat [17]): Active | Activity (Jurkat [21]): Active | Activity (Jurkat [23]): Active | Activity (Jurkat [35]): Active | Activity (T-cell line [36]): 2361.07%
